Reference: publication PMC9286713 (CPT: Pharmacometrics & Systems Pharmacology, 2022)
Converted amounts (≈) assume the structure as drawn. Read-outs that look alike come from different tables or passages of the source.

How the values were obtained:
[1] = cited from earlier work; for Observed AUC0–∞: geometric mean
P‐gp = P‐gp (Homo sapiens, UniProt P08183); test: P‐gp inhibition
[2] = patients with cancer, cited from earlier work; for Observed AUCss,0–24: geometric mean
logP determination = assay type: physicochemical
[3] = fed state; cited from earlier work
OCT2 = target: T1, OCT2 (Homo sapiens, UniProt O15244); test: OCT2 inhibition
T1 sequence (O15244 1-555): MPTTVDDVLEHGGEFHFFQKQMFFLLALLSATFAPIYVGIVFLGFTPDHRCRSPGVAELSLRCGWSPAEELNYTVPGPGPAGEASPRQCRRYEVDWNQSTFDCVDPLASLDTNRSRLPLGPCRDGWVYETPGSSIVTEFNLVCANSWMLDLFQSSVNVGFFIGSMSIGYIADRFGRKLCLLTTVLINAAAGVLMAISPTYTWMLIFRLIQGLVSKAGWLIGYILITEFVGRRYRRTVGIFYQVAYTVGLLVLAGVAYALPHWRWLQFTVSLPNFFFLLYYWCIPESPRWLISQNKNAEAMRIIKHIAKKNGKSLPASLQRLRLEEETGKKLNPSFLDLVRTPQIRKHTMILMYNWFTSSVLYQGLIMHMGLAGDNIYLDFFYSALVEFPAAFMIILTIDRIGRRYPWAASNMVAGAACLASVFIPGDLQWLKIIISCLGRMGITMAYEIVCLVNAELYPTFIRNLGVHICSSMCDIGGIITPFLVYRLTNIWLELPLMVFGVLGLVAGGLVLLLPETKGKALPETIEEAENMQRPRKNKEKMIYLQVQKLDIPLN

P‐glycoprotein (P‐gp) = P‐glycoprotein (P‐gp) (Homo sapiens, UniProt P08183); test: In vitro transport study, pemigatinib as substrate: P‐gp mediated efflux; assay type: in vitro ADME; conditions: data on file
P‐glycoprotein (P‐gp), sequence (P08183 whole entry): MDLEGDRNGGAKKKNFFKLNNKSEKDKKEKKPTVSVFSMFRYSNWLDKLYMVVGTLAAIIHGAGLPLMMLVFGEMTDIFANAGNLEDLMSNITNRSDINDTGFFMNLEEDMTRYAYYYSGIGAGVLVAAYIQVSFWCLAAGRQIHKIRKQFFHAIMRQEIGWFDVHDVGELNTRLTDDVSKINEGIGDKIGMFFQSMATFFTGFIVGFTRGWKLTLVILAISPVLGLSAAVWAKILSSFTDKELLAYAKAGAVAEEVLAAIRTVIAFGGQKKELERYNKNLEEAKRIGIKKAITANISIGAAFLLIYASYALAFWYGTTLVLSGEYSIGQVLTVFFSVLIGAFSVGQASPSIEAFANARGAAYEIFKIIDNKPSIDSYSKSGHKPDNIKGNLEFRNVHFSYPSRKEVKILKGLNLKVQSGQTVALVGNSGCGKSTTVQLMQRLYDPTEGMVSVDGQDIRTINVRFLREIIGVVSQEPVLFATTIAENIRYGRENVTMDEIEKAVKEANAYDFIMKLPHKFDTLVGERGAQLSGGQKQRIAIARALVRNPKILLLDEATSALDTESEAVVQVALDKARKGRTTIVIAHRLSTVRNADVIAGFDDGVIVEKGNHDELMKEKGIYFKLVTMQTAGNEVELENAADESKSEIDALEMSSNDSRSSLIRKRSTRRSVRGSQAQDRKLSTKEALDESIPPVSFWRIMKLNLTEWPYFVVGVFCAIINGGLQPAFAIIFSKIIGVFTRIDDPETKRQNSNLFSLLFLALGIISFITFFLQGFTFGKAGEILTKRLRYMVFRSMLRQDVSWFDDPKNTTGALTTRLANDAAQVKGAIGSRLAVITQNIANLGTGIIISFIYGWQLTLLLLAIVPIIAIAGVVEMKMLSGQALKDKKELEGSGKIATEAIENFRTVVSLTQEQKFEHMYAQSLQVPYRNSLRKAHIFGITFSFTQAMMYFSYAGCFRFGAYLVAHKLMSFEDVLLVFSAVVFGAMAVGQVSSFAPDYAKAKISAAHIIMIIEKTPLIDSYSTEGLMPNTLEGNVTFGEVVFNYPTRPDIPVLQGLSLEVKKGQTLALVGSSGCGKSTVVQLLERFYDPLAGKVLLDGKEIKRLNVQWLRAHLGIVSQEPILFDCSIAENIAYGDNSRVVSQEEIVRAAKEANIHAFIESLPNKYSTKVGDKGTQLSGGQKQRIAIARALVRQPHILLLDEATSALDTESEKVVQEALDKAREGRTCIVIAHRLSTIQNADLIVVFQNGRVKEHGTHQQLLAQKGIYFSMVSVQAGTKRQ

Blood/plasma ratio = assay type: in vitro ADME; conditions: blood and plasma
[4] = Human mass balance / ADME study in healthy participants; assay type: in vivo
[5] = Solubility‐pH profile in buffers at 37°C; assay type: physicochemical
[6] = cited from earlier work
[7] = human ADME study (unpublished data); cited from earlier work
MATE1 = target: T2, MATE1 (Homo sapiens, UniProt Q96FL8); test: MATE1 inhibition; assay type: in vitro ADME
T2 sequence (Q96FL8 1-570): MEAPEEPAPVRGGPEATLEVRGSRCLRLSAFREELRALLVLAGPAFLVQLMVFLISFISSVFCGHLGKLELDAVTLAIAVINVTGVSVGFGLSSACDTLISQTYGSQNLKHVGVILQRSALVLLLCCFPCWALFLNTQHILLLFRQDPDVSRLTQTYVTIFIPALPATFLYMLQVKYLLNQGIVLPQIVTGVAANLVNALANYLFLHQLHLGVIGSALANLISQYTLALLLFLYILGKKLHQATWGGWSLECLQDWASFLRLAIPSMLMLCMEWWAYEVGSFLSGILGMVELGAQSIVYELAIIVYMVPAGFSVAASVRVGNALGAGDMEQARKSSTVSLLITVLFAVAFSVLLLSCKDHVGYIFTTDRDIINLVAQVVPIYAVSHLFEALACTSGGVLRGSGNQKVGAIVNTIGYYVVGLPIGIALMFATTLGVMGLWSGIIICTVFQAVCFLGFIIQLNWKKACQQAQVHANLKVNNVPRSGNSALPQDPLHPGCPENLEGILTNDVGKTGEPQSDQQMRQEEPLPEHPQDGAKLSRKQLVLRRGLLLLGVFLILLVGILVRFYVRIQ

pKa determination = assay type: physicochemical
[8] = healthy participants, unpublished data

P‐gp, sequence (P08183 whole entry): as the sequence (P08183 whole entry) above

Compound: CCN1C(=O)N(c2c(F)c(OC)cc(OC)c2F)Cc2cnc3[nH]c(CN4CCOCC4)cc3c21 [pemigatinib, Pemigatinib]
- Increase in pemigatinib AUC ([1]; itraconazole coadministration): ~90%
- Increase in pemigatinib Cmax ([1]; itraconazole coadministration): ~20%
- CLpo (oral clearance) ([1]; pemigatinib alone cohort of itraconazole DDI study, healthy volunteers): 14.5 L/h
- Decrease in half‐life of pemigatinib ([1]; rifampin coadministration): 63%
- Decrease in pemigatinib AUC ([1]; rifampin coadministration): 85%
- Observed AUC0–∞ ([1]; single oral dose 4.5 mg, healthy volunteers): 672 nM·h
- Observed AUC0–∞ ([1]; single oral dose 13.5 mg, healthy volunteers): 1960 nM·h
- IC50 (P‐gp): 4.8 µM
- Observed AUCss,0–24 ([2]; multiple oral doses 6 mg): 1050 nM·h
- Observed AUCss,0–24 ([2]; multiple oral doses 9 mg): 1670 nM·h
- Terminal half‐life ([2]; oral dosing): ~ 15 h
- CLpo (oral clearance) ([2]; phase I study): 12.0 L/h
- Apparent volume of distribution, geometric mean [2]: 173 to 244 L
- SS oral clearance, geometric mean [2]: 9.88 to 11.7 L/h
- logP (logP determination): 2.2
- Decrease of geometric mean Cmax [3]: 18%
- Increase of geometric mean AUC0–24 at SS [3]: 11%
- IC50 (OCT2): 75 nM
- Concentration at which P‐gp mediated efflux was saturated (P‐glycoprotein (P‐gp)): 1 µM
- blood plasma ratio (Blood/plasma ratio): 0.96
- Total radioactivity excreted in feces [4, 8]: 82.4%
- Total radioactivity excreted in urine [4, 8]: 12.6%
- Radioactivity blood/plasma value ([4]; human ADME study): 0.80
- CL renal ([4]; human, urine, oral): ~3.33 mL/min
- Administered radioactive dose recovered as unchanged pemigatinib in feces ([4]; in vivo): 1.4%
- Dose excreted in urine as unchanged pemigatinib (renal excretion) ([4]; in vivo): ~ 1%
- solubility ([5]; buffer, 37 °C, pH 1.2, aqueous buffer, Solubility, pH 1.2 buffer): ~710 µg/mL (≈ 1460 µM)
- solubility ([5]; buffer, 37 °C, pH 2, aqueous buffer, Solubility, pH 2.0 buffer): 650 µg/mL (≈ 1330 µM)
- solubility ([5]; buffer, 37 °C, pH 6.5, aqueous buffer, Solubility, pH 6.5 buffer): < 1 µg/mL
- solubility ([5]; buffer, 37 °C, pH 7.4, aqueous buffer, Solubility, pH 7.4 buffer): < 1 µg/mL
- solubility ([5]; buffer, pH 3.3, Solubility, pH 3.3): 200 µg/mL (≈ 410 µM)
- solubility ([5]; buffer, pH 4.3, Solubility, pH 4.3): 30 µg/mL (≈ 61.5 µM)
- solubility ([5]; buffer, pH 5.3, Solubility, pH 5.3): 1 µg/mL (≈ 2.05 µM)
- solubility ([5]; pH 1.2 buffer, 37°C): 710 µg/mL (≈ 1460 µM)
- Decrease of geometric mean AUC of pemigatinib ([6]; coadministration with esomeprazole): 8%
- Decrease of geometric mean Cmax of pemigatinib ([6]; coadministration with histamine‐2 antagonist ranitidine): 2%
- Decrease of geometric mean Cmax of pemigatinib ([6]; coadministration with proton pump inhibitor esomeprazole): 35%
- Increase of geometric mean AUC of pemigatinib ([6]; coadministration with ranitidine): 3%
- Total radioactivity accounted for by known metabolites [7]: 72%
- IC50 (MATE1): 1100 nM
- Compound type (pKa determination): Diprotic base
- pKa (pKa determination; first printed pKa of the diprotic base): 5.7
- pKa (pKa determination; second printed pKa of the diprotic base): 3.1

Compound: CCN1C(=O)N(c2c(F)c(O)cc(OC)c2F)Cc2cnc3[nH]c(CN4CCOCC4)cc3c21 [M2, O‐desmethyl‐pemigatinib]
- Metabolite burden in urine and feces derived from M2 and its secondary metabolites [7]: 76.9%
